Measurements: US6737383B1, “Herbicidal oxadiazolidines” (priority 1999, dated 2004)

Legend:
bedstraw = assay: Test B pre/postemergence bedstraw; format: in vivo, Galium aparine; settings: Preemergence
Summary of the method: (§1)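 Response is a visual 0-to-10 score relative to untreated plants, where 0 means no effect and 10 means complete control, taken twelve to sixteen days after application. Treatments went onto soil at planting and onto foliage of 1- to 4-leaf plants, using a surfactant-containing non-phytotoxic solvent.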

blackgrass = assay: Test B pre/postemergence blackgrass; format: in vivo, Alopecurus myosuroides
Summary of the method: as §1

surinam grass = assay: Test B pre/postemergence surinam grass; format: in vivo, Brachiaria decumbens
Summary of the method: as §1

cocklebur = assay: Test B pre/postemergence cocklebur; format: in vivo, Xanthium strumarium
Summary of the method: as §1

corn = assay: Test B pre/postemergence corn; format: in vivo, Zea mays
Summary of the method: as §1

crabgrass = assay: Test B pre/postemergence crabgrass; format: in vivo, Digitaria sanguinalis
Summary of the method: as §1

giant foxtail = assay: Test B pre/postemergence giant foxtail; format: in vivo, Setaria faberii
Summary of the method: as §1

morningglory = assay: Test B pre/postemergence morningglory; format: in vivo, Ipomoea hederacea
Summary of the method: as §1

pigweed = assay: Test B pre/postemergence pigweed; format: in vivo, Amaranthus retroflexus
Summary of the method: as §1

rape = assay: Test B pre/postemergence rape; format: in vivo, Brassica napus
Summary of the method: as §1

soybean = assay: Test B pre/postemergence soybean; format: in vivo, Glycine max
Summary of the method: as §1

sugar beet = assay: Test B pre/postemergence sugar beet; format: in vivo, Beta vulgaris
Summary of the method: as §1

velvetleaf = assay: Test B pre/postemergence velvetleaf; format: in vivo, Abutilon theophrasti
Summary of the method: as §1

wheat = assay: Test B pre/postemergence wheat; format: in vivo, Triticum aestivum
Summary of the method: as §1

wild oat = assay: Test B pre/postemergence wild oat; format: in vivo, Avena fatua
Summary of the method: as §1

purple nutsedge = assay: Test B pre/postemergence purple nutsedge; format: in vivo, Cyperus rotundus
Summary of the method: as §1

[1] = Postemergence, Rate 62 g/ha, scale 0 to 10, 0 is no effect, 10 is complete control
[2] = Postemergence, Rate 125 g/ha, scale of 0 to 10 where 0 is no effect and 10 is complete control
[3] = Postemergence, Rate 250 g/ha, scale of 0 to 10, 0 is no effect, 10 is complete control
[4] = Preemergence, Rate 62 g/ha, scale of 0 to 10 where 0 is no effect and 10 is complete control
[5] = Preemergence, Rate 125 g/ha, scale of 0 to 10 where 0 is no effect and 10 is complete control
[6] = Preemergence, Rate 250 g/ha, scale 0 to 10 (0 no effect, 10 complete control)
[7] = Preemergence, Rate 500 g/ha, scale of 0 to 10 where 0 is no effect and 10 is complete control
[8] = Rate 500 g/ha, Postemergence, scale 0 to 10, 0 is no effect, 10 is complete control

SMILES: CC(C)N(C(=O)n1oc(=O)n(Cc2nnc(Cl)s2)c1=O)c1ccc(Cl)cc1 [Compound 653]
- Bedstraw plant response rating (bedstraw; Rate 62 g/ha, scale of 0 to 10 where 0 is no effect and 10 is complete control): 0
- Bedstraw plant response rating (bedstraw; Rate 125 g/ha, scale of 0 to 10 where 0 is no effect and 10 is complete control): 0
- Plant response rating, Bedstraw (bedstraw; Rate 250 g/ha, scale 0 to 10 (0 no effect, 10 complete control)): 0
- Plant response rating, Bedstraw (bedstraw; Rate 500 g/ha, scale of 0 to 10 where 0 is no effect and 10 is complete control): 0
- Plant response rating, Blackgrass (blackgrass; [1]): 0
- Blackgrass plant response rating (blackgrass; [2]): 0
- Blackgrass plant response rating (blackgrass; [3]): 0
- Blackgrass plant response rating (blackgrass; [4]): 0
- Blackgrass plant response rating (blackgrass; [5]): 0
- Plant response rating, Blackgrass (blackgrass; [6]): 0
- Plant response rating, Blackgrass (blackgrass; [7]): 0
- Blackgrass plant response rating (blackgrass; [8]): 0
- Plant response rating, B. signalgrass (surinam grass; [1]): 0
- Plant response rating, B. signalgrass (surinam grass; [2]): 0
- B. signalgrass plant response rating (surinam grass; [3]): 0
- B. signalgrass plant response rating (surinam grass; [4]): 0
- B. signalgrass plant response rating (surinam grass; [5]): 0
- Plant response rating, B. signalgrass (surinam grass; [6]): 0
- Plant response rating, B. signalgrass (surinam grass; [7]): 0
- B. signalgrass plant response rating (surinam grass; [8]): 2
- Plant response rating, Cocklebur (cocklebur; [1]): 0
- Cocklebur plant response rating (cocklebur; [2]): 0
- Cocklebur plant response rating (cocklebur; [3]): 0
- Cocklebur plant response rating (cocklebur; [4]): 0
- Plant response rating, Cocklebur (cocklebur; [6]): 0
- Plant response rating, Cocklebur (cocklebur; [7]): 0
- Cocklebur plant response rating (cocklebur; [8]): 0
- Plant response rating, Corn (corn; [1]): 0
- Corn plant response rating (corn; [2]): 0
- Corn plant response rating (corn; [3]): 0
- Corn plant response rating (corn; [4]): 0
- Corn plant response rating (corn; [5]): 0
- Plant response rating, Corn (corn; [6]): 0
- Plant response rating, Corn (corn; [7]): 0
- Corn plant response rating (corn; [8]): 0
- Plant response rating, Crabgrass (crabgrass; [1]): 0
- Crabgrass plant response rating (crabgrass; [2]): 0
- Crabgrass plant response rating (crabgrass; [3]): 0
- Crabgrass plant response rating (crabgrass; [4]): 0
- Crabgrass plant response rating (crabgrass; [5]): 2
- Plant response rating, Crabgrass (crabgrass; [6]): 6
- Plant response rating, Crabgrass (crabgrass; [7]): 8
- Crabgrass plant response rating (crabgrass; [8]): 2
- Plant response rating, Giant foxtail (giant foxtail; [1]): 0
- Giant foxtail plant response rating (giant foxtail; [2]): 0
- Giant foxtail plant response rating (giant foxtail; [3]): 2
- Giant foxtail plant response rating (giant foxtail; [4]): 0
- Giant foxtail plant response rating (giant foxtail; [5]): 0
- Plant response rating, Giant foxtail (giant foxtail; [6]): 2
- Plant response rating, Giant foxtail (giant foxtail; [7]): 8
- Giant foxtail plant response rating (giant foxtail; [8]): 7
- Plant response rating, Morningglory (morningglory; [1]): 0
- Morningglory plant response rating (morningglory; [2]): 1
- Morningglory plant response rating (morningglory; [3]): 1
- Morningglory plant response rating (morningglory; [4]): 0
- Morningglory plant response rating (morningglory; [5]): 0
- Plant response rating, Morningglory (morningglory; [6]): 0
- Plant response rating, Morningglory (morningglory; [7]): 0
- Morningglory plant response rating (morningglory; [8]): 1
- Plant response rating, Redroot pigweed (pigweed; [1]): 0
- Redroot pigweed plant response rating (pigweed; [2]): 0
- Redroot pigweed plant response rating (pigweed; [4]): 0
- Redroot pigweed plant response rating (pigweed; [5]): 0
- Plant response rating, Redroot pigweed (pigweed; [6]): 0
- Plant response rating, Redroot pigweed (pigweed; [7]): 3
- Redroot pigweed plant response rating (pigweed; [8]): 0
- Plant response rating, Rape (rape; [1]): 0
- Rape plant response rating (rape; [2]): 0
- Rape plant response rating (rape; [4]): 0
- Rape plant response rating (rape; [5]): 0
- Plant response rating, Rape (rape; [6]): 0
- Plant response rating, Rape (rape; [7]): 0
- Rape plant response rating (rape; [8]): 0
- Plant response rating, Soybean (soybean; [1]): 0
- Soybean plant response rating (soybean; [2]): 0
- Soybean plant response rating (soybean; [4]): 0
- Soybean plant response rating (soybean; [5]): 0
- Plant response rating, Soybean (soybean; [6]): 0
- Plant response rating, Soybean (soybean; [7]): 0
- Soybean plant response rating (soybean; [8]): 0
- Plant response rating, Sugarbeets (sugar beet; [1]): 0
- Sugarbeets plant response rating (sugar beet; [2]): 0
- Sugarbeets plant response rating (sugar beet; [4]): 0
- Sugarbeets plant response rating (sugar beet; [5]): 0
- Plant response rating, Sugarbeets (sugar beet; [6]): 0
- Plant response rating, Sugarbeets (sugar beet; [7]): 0
- Sugarbeets plant response rating (sugar beet; [8]): 0
- Plant response rating, Velvetleaf (velvetleaf; [1]): 0
- Velvetleaf plant response rating (velvetleaf; [2]): 0
- Velvetleaf plant response rating (velvetleaf; [4]): 0
- Velvetleaf plant response rating (velvetleaf; [5]): 0
- Plant response rating, Velvetleaf (velvetleaf; [6]): 0
- Plant response rating, Velvetleaf (velvetleaf; [7]): 0
- Velvetleaf plant response rating (velvetleaf; [8]): 0
- Plant response rating, Wheat (wheat; [1]): 0
- Wheat plant response rating (wheat; [2]): 0
- Wheat plant response rating (wheat; [4]): 0
- Wheat plant response rating (wheat; [5]): 0
- Plant response rating, Wheat (wheat; [6]): 0
- Plant response rating, Wheat (wheat; [7]): 0
- Wheat plant response rating (wheat; [8]): 0
- Plant response rating, Wild oats (wild oat; [1]): 0
- Wild oats plant response rating (wild oat; [2]): 0
- Wild oats plant response rating (wild oat; [4]): 0
- Wild oats plant response rating (wild oat; [5]): 0
- Plant response rating, Wild oats (wild oat; [6]): 0
- Plant response rating, Wild oats (wild oat; [7]): 2
- Wild oats plant response rating (wild oat; [8]): 0
- Plant response rating, Nutsedge (purple nutsedge; [1]): 0
- Nutsedge plant response rating (purple nutsedge; [2]): 0
- Nutsedge plant response rating (purple nutsedge; [4]): 0
- Plant response rating, Nutsedge (purple nutsedge; [7]): 0
- Nutsedge plant response rating (purple nutsedge; [8]): 0
